Assay results from PubChem BioAssay (NCI).
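Protocol summary: plate cells (96-well), add compound at 5 concentrations, incubate 48 h, interpolate endpoints linearly. The concentration for 50% growth inhibition is given as GI50. Definition used: TGI = concentration required for complete inhibition of growth.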

How the values were obtained:
Test in all cases: inhibition of tumour cell growth, NCI panel, 48 h
M19-MEL melanoma = test system: M19-MEL melanoma
HCC-2998 colon = test system: HCC-2998 colon
HOP-18 NSCLC = test system: HOP-18 NSCLC
SNB-75 CNS = test system: SNB-75 CNS
KM12 colon = test system: KM12 colon
UO-31 renal = test system: UO-31 renal
CCRF-CEM leukemia = test system: CCRF-CEM leukemia
OVCAR-3 ovarian = test system: OVCAR-3 ovarian
HS 578T breast = test system: HS 578T breast

Row | Structure (SMILES) | TGI (M19-MEL melanoma) | TGI (HCC-2998 colon) | TGI (HOP-18 NSCLC) | TGI (SNB-75 CNS) | TGI (KM12 colon) | TGI (UO-31 renal) | TGI (CCRF-CEM leukemia) | TGI (OVCAR-3 ovarian) | GI50 (OVCAR-3 ovarian) | GI50 (CCRF-CEM leukemia) | GI50 (HCC-2998 colon) | GI50 (HS 578T breast) | TGI (HS 578T breast) | GI50 (SNB-75 CNS) | GI50 (KM12 colon) | GI50 (UO-31 renal)
1 | CCCCCCCCCCC/C(=N/O)c1ccc(O)c2ncccc12 | 4.97 µM | 23.1 µM | 9.59 µM | 13.2 µM | > 100 µM | 11.4 µM | – | – | – | – | – | – | – | – | – | –
2 | Clc1ccc(Cl)c2[s+]snc12 | > 100 µM | > 100 µM | > 100 µM | > 100 µM | > 100 µM | > 100 µM | > 100 µM | > 100 µM | – | – | – | – | – | – | – | –
3 | COc1ccc(C=C2C(=O)OC(C)(C)OC2=O)cc1OC | > 100 µM | > 100 µM | – | > 100 µM | > 100 µM | > 100 µM | > 100 µM | > 100 µM | – | – | – | – | – | – | – | –
4 | O=C1NC(=S)NC(=O)C1=Cc1cc2c(cc1[N+](=O)[O-])OCO2 | > 100 µM | > 100 µM | > 100 µM | > 100 µM | > 100 µM | > 100 µM | > 100 µM | > 100 µM | – | – | – | – | – | – | – | –
5 | CCCCCCCCCCCCCCCCCC(=O)OCC(CN(C)CCN(C)C)OC(=O)CCCCCCCCCCCCCCCCC (centres undefined) | – | > 100 µM | 89 µM | > 100 µM | > 100 µM | > 100 µM | > 100 µM | > 100 µM | – | – | – | – | – | – | – | –
6 | COC(=O)C1CC(C(=O)OC)c2nc3cc(C)ccc3nc21 (centres undefined) | > 100 µM | > 100 µM | > 100 µM | > 100 µM | > 100 µM | > 100 µM | > 100 µM | > 100 µM | – | – | – | – | – | – | – | –
7 | N#CC(C(=O)/C(=N/N)C(C#N)c1ccc(Cl)cc1)c1ccc(Cl)cc1 (centres undefined) | > 100 µM | > 100 µM | > 100 µM | > 100 µM | > 100 µM | > 100 µM | > 100 µM | > 100 µM | – | – | – | – | – | – | – | –
8 | CCOC(=O)CC(=O)Sc1ccccc1 | 48.4 µM | 96 µM | > 100 µM | – | > 100 µM | 28.4 µM | 51.3 µM | 42.7 µM | – | – | – | – | – | – | – | –
9 | CCCN(CCCCC(NC(C)=O)C(=O)NCc1ccccc1)C(=O)NCCCl (centres undefined) | > 100 µM | > 100 µM | > 100 µM | > 100 µM | > 100 µM | > 100 µM | > 100 µM | > 100 µM | – | – | – | – | – | – | – | –
10 | Cc1c(/C=N/NS(=O)(=O)c2ccccc2)no[n+]1[O-] | – | – | > 100 µM | – | > 100 µM | 49.6 µM | > 100 µM | > 100 µM | – | – | – | – | – | – | – | –
11 | CCOc1ccc(N=Cc2cccc3cccnc23)cc1 | > 100 µM | > 100 µM | > 100 µM | > 100 µM | > 100 µM | – | > 100 µM | > 100 µM | – | – | – | – | – | – | – | –
12 | Clc1ccc(-n2nnc(C3=NCCN3)c2-c2ccccc2)cc1 | > 100 µM | > 100 µM | > 100 µM | > 100 µM | > 100 µM | > 100 µM | > 100 µM | > 100 µM | – | – | – | – | – | – | – | –
13 | COC(=O)C1=C(C)N(NC(N)=O)C2(N)N(NC(N)=O)C(C)=C(C(=O)OC)C12C(=O)OC (centres undefined) | > 100 µM | > 100 µM | > 100 µM | – | > 10 µM | > 100 µM | > 100 µM | > 10 µM | – | – | – | – | – | – | – | –
14 | COc1ccc2[nH]c(-c3ccccn3)cc(=O)c2c1 | > 100 µM | – | > 100 µM | 88 µM | > 100 µM | > 100 µM | > 100 µM | > 100 µM | > 100 µM | – | – | – | – | – | – | –
15 | [N-]=[N+]=NC(c1cn(C2CC(O)C(CO)O2)c(=O)[nH]c1=O)C(Br)I (centres undefined) | > 100 µM | > 100 µM | – | > 100 µM | > 100 µM | > 100 µM | > 100 µM | > 100 µM | – | – | – | – | – | – | – | –
16 | O=C1C(Cl)C(c2cccc(O)c2)N1n1cnc2ccccc2c1=O (centres undefined) | > 100 µM | > 100 µM | > 100 µM | > 100 µM | – | > 100 µM | – | > 100 µM | – | – | – | – | – | – | – | –
17 | CC(O)/C=C/C(CCC(C)CO)C(C)C (centres undefined) | > 100 µM | > 100 µM | – | > 100 µM | > 100 µM | > 100 µM | > 100 µM | > 100 µM | – | – | – | – | – | – | – | –
18 | C=C1[C@@H](C)[C@H]2[C@H](Cc3ccccc3)NC(=O)[C@]23OC(=O)/C=C/[C@H](O)CCC[C@@H](C)C/C=C/[C@H]3[C@@H]1O | > 100 µM | > 100 µM | 3.03 µM | 1.3 µM | > 100 µM | 4.12 µM | 57.4 µM | 91.4 µM | – | – | – | – | – | – | – | –
19 | CC1OC(n2ncc(=O)[nH]c2=O)C=CC1=O (centres undefined) | > 100 µM | > 100 µM | – | > 100 µM | > 100 µM | > 100 µM | – | > 100 µM | – | – | – | – | – | – | – | –
20 | COc1ccc(-n2c(SCc3cc(OC)c(OC)c(OC)c3)nc3ccc(C)cc3c2=O)c(OC)c1 | – | > 100 µM | – | > 100 µM | > 100 µM | > 100 µM | 6.69 µM | 7.04 µM | 2.84 µM | 2.38 µM | 6.75 µM | 3.31 µM | > 100 µM | 3.14 µM | 3.42 µM | 2.76 µM
21 | COc1ccc(/C=N/N=C(\N)NO)cc1OC | > 100 µM | > 100 µM | – | > 100 µM | > 100 µM | > 100 µM | > 100 µM | > 100 µM | – | – | – | – | – | – | – | –
22 | O=C1C=C[C@@]23CC1C(O)C[C@H]2C=Cc1ccccc13 (some centres undefined) | > 100 µM | > 100 µM | – | > 100 µM | > 100 µM | > 100 µM | > 100 µM | > 100 µM | – | – | – | – | – | – | – | –
23 | C(=N\Nc1ccccn1)/c1ccccn1 | – | 97.3 µM | – | > 93.4 µM | > 100 µM | > 34.1 µM | > 100 µM | – | 0.286 µM | 0.446 µM | 0.272 µM | 1.41 µM | > 100 µM | 0.665 µM | 0.47 µM | 0.267 µM
24 | O=C(O)c1cc2ccccc2c(O)c1O | – | 35.8 µM | – | 31.7 µM | 30.4 µM | 35.4 µM | > 58.6 µM | 28.9 µM | – | – | – | – | 45.4 µM | – | – | –
25 | O=C1C(Cl)=C(Cl)C(=O)N1C1C2CC3CC(C2)CC1C3 (centres undefined) | > 100 µM | > 100 µM | > 100 µM | > 100 µM | – | > 100 µM | 64.7 µM | – | – | – | – | – | – | – | – | –
26 | Cc1c(C#N)cccc1-c1cc(-c2cn(Cc3cccc(C(C)(C)O)n3)nn2)nc(N)n1 | – | > 100 µM | – | 39 µM | > 100 µM | > 100 µM | > 100 µM | > 100 µM | 17.6 µM | 16.3 µM | 90.3 µM | 25.6 µM | > 100 µM | 2.96 µM | 47.4 µM | 10.7 µM
